Several values for one entry are separate records, joined by “and”; a condition that tells them apart may be missing. Equal values may be shown once. Read-outs that look alike come from different tables or passages of the source.
What was measured:
[1] = tested on: lungs of bleomycin-injured mice; assay: MR imaging of lung in bleomycin lung fibrosis model; assay type: in vivo, mouse; conditions: for ΔLMR in lungs, pair-wise comparison: 60 min post injection, individual mice ID 1-6
Description: C57Bl/6 adult male mice at 8 weeks of age (Jackson Laboratories, Barr Harbor, ME) received a single intratracheal dose of bleomycin, 1 units/kg body weight (50 μL total volume) (Fresenius Kabi, Lake Zurich, Il) as previously described in Desogere, P., et al. Optimization of a Collagen-Targeted PET Probe for Molecular Imaging of Pulmonary Fibrosis. J Nuc Med 58, 1991-1996 (2017).
Pair-Wise Comparison Between Gd-CHyd and Gd-9 in Lung Fibrosis Model:
A series of baseline images were first acquired. […] Then anesthesia was removed, and the mouse was allowed to awake and return to cage. After 4 hours, the same mouse was anesthetized again.
Pair-wise comparison between Mn-15 and Mn-17 in lung fibrosis model: The bleomycin-injured mice were first randomly imaged with Mn-15 or Mn-17 and then 24 hours later same imaging protocol was performed in the same mice with the other probe.
Animals were anesthetized with isoflurane (1-2%) and placed in a specially designed cradle with body temperature maintained at 37° C. The inhaled isoflurane level was adjusted to maintain a respiration rate of 60±5 breaths per minute. The tail vein was cannulated for intravenous (i.v.) delivery of the contrast agent while the animal was positioned in the scanner. Imaging was performed at 4.7 T using a small bore animal scanner with a custom-built volume coil. Mice were imaged with a dose of 100 μmol/kg from 30 mM stock solution of Gd or Mn complex.
For lung imaging, images were acquired with following sequences and parameters: 3D Ultrashort TE (3D-UTE, TR/TE/FA=4 ms/11.75 μs/16°, 0.6 mm isotropic spatial resolution, field of view (FOV) 75 mm×75 mm, one average, acquisition time=6.1 min) images were acquired prior to and dynamically post injection of contrast agent; Rapid Acquisition with Relaxation Enhancement (RARE, TR/TE/FA=1.5 s/8 ms/180°, 0.3 mm isotropic spatial resolution, field of view (FOV) 60 mm×50 mm, four average, acquisition time=6.1 min) and T1-weighted 3D Fast Low Angle Shot (FLASH, TR/TE/FA=10 ms/2.5 ms/30°, 0.6 mm isotropic spatial resolution, field of view (FOV) 60 mm×50 mm, one average, acquisition time=6.1 min) images were also acquired.
A total of 6 lung ROIs were defined on axial UTE images to obtain signal intensity (SI); ROIs in the dorsal muscle in each slice were also defined as reference; ROIs in the field of view without any tissue (air) were used to measure the variation in background signal. Then the lung-to muscle ratio (LMR) or contrast to noise ratio (CNR) was averaged from the 6 slices to calculate changes in LMR (ΔLMR) or CNR (ΔCNR) at each time point.
Gd-9 is a Gd-DOTA derivative with two hydrazine arms synthesized by amide coupling of two tBu-piperazin-1-ylcarbamate groups to 1,4,7,10-tetraazacyclododecane-1,4-bis(tBu-acetate)-4,10-bis(glutaric acid 1-tBu ester), followed by acid deprotection and gadolinium complexation. C57Bl/6 adult male mice at 8 weeks of age received a single intratracheal dose of bleomycin, 1 U/kg body weight (50 μL total volume) as previously described. Pair-wise imaging study of GdCHyd and Gd-9 was carried out in mice at day 14 post bleomycin injury on a 4.7 T MRI with a dose of 100 μmol/kg of each probe. For the treatment study, mice were imaged first at day 10 post bleomycin injury, then treated daily with oral gavage of either epigallocatechin gallate (EGCG, 100 mg/kg) or PBS (vehicle) for 11 days. At day 21 post bleomycin injury, the animals were imaged again. MRI consisted of T1-weighted UTE (TR/TE/flip angle=4 ms/0.011 ms/15°) images acquired prior to and up to 30 minutes following intravenous administration of Gd-9 ([…]). Following the second imaging session, animals were euthanized (60 minutes post injection), and lung tissues were removed for further analysis.

[2] = Kinetics of hydrolysis of butyraldehyde condensation products; assay type: physicochemical
Description: Quantitative Measurements of Kinetics of Hydrolysis:
One mM solutions of Mn-15-Ald, Mn-16-Ald and Mn-17-Ald (where Mn-Ald refers to the reaction product with either Mn-15, Mn-16, or Mn-17) were prepared by the following procedure: 1 mM (1 mL) of Mn-15, Mn-16 or Mn-17 were prepared in PBS (pH 7.4) followed by addition of butyraldehyde (14.4 mg, […]). The mixture was rocked gently under room temperature for 10 min and then freeze-dried for 12 hours. Then, the obtained white solid was redissolved in 1 mL water.
The HPLC trace of each butyraldehyde reaction product was measured by Method 25 (Mn-15-Ald) and Method 26 (Mn-16-Ald, Mn-17-Ald). Then, a 37% stock solution of formaldehyde was added to give a final formaldehyde concentration of 200 mM.
The hydrolysis of the hydrazone/oxime is reversible. An excess of formaldehyde was added to trap the liberated nitrogen base and thereby push the hydrolysis reaction to completion, allowing the hydrolysis reaction to be monitored without interference from the reverse reaction. So, the kinetics for hydrolysis of Mn-15-Ald, Mn-16-Ald and Mn-17-Ald follows the rate law.
where Y is the % hydrolysis, t is time, kobs,H is the first-order rate constant, and Ymax is the % hydrolysis at t=∞. Kinetic traces were obtained in triplicate, and half-lives were calculated with equation 20: […]
The novel Mn-PC2A derivatives (FIG. 1A) were synthesized in 6 steps from the pyclen macrocycle. Hydrazone formation kinetics with butyraldehyde as a model compound were measured by UV spectroscopy at 220 nm, 25° C., pH 7.4, PBS. Hydrazone hydrolysis kinetics were measured by HPLC with UV detection at 220 nm using excess formaldehyde to trap the liberated hydrazine and prevent the reverse reaction. Allysine-modified BSA (BSA-Ald, 17.4 mg/mL, […] aldehyde) as a soluble model protein or BSA (17.3 mg/mL, 16.8 μM aldehyde) and Mn-15 or Mn-17 (50-200 μM) were incubated at 37° C. for 3 hours, and 1/T1 was measured at 1.4 T, 37° C., and plotted vs concentration to obtain relaxivity. The protein bound probe was isolated by ultrafiltration and the relaxivity of the protein-bound fraction measured. All Mn concentrations were measured by ICP-MS. Liver fibrosis was induced in male C57BL/6 mice by oral gavage with CCl4 for 12 weeks, 2-3 times per week, while control mice received vehicle (olive oil). 3D FLASH images (TR/TE/FA=15 ms/2 ms/30°, 0.25 mm^3 spatial resolution) were acquired on a 4.7 T Bruker Biospec prior to and dynamically for 40 min p.i. of 100 μmol/kg Mn-15. Liver to muscle contrast to noise was calculated as CNR=(SILiver−SIMuscle)/SDAir where SI=signal intensity and SD=standard deviation in SI.

[3] = butyraldehyde reaction product, formaldehyde 200 mM as trap
[4] = bleomycin injured mice (fibrotic lung)

Compound: NN1CCN(C(=O)CCC(C(=O)[O-])N2CCN(CC(=O)[O-])CCN(CC(=O)[O-])CCN(C(CCC(=O)N3CCN(N)CC3)C(=O)[O-])CC2)CC1.[Gd+3] (stereo not drawn) [Gd-9, cis-1,4-Gd-(CHyd)2]
- fold higher signal in fibrotic lung than GdCHyd ([1]; bleomycin day 14, pairwise study, same time point post injection): 3 fold
- ΔCNR of lung, pair-wise comparison ([1]; bleomycin injured mice, 25 min post injection, individual mice ID 1-4): 3.7 and 4.3 and 3.0 and 4.0

Compound: NNC(CCC(=O)NCCCN1CCN(CC(=O)[O-])Cc2cccc(n2)CN(CC(=O)[O-])CC1)C(=O)O.[Mn+2] (stereo not drawn) [Mn-15]
- hydrolysis rate constant [2]: 0.00103 s⁻¹
- times higher hydrolysis rate constant compared to Mn-17 [2]: 2 fold
- hydrolysis rate constant [2, 3]: 1.03 ± 0.15 ×10^−3 s^−1
- ΔLMR in lungs, pair-wise comparison [1]: 0.06 and 0.11 and 0.18 (2×) and 0.08 and 0.15
- Change in lung to muscle ratio (ΔLMR) ([1]; Bleomycin injured mice): 0.13
- Change in lung to muscle ratio (ΔLMR) ([1]; Naïve mice): 0.00
- Washout T1/2 in lungs ([1]; Naïve mice (normal lung)): 13.7 ± 1.4 min
- Washout T1/2 in lungs [1, 4]: 33.5 ± 5.1 min and 33.6 ± 5.1 min

Compound: NOC(CCC(=O)NCCCN1CCN(CC(=O)[O-])Cc2cccc(n2)CN(CC(=O)[O-])CC1)C(=O)O.[Mn+2] (stereo not drawn) [Mn-16]
- hydrolysis rate constant [2]: 7.9e-07 s⁻¹
- hydrolysis rate constant [2, 3]: 0.79 ± 0.03 ×10^−6 s^−1
- Change in lung to muscle ratio (ΔLMR) ([1]; Bleomycin injured mice): 0.18
- Change in lung to muscle ratio (ΔLMR) ([1]; Naïve mice): 0.00
- Washout T1/2 in lungs ([1]; Naïve mice (normal lung)): 17.9 ± 3.2 min
- Washout T1/2 in lungs [1, 4]: >240 min

Compound: NNCC(=O)NCCCN1CCN(CC(=O)[O-])Cc2cccc(n2)CN(CC(=O)[O-])CC1.[Mn+2] [Mn-17]
- hydrolysis rate constant [2]: 0.00041 s⁻¹
- hydrolysis rate constant [2, 3]: 0.41 ± 0.01 ×10^−3 s^−1
- ΔLMR in lungs, pair-wise comparison [1]: 0.09 and 0.18 (2×) and 0.27 and 0.15 (2×)
- Change in lung to muscle ratio (ΔLMR) ([1]; Bleomycin injured mice): 0.15
- Change in lung to muscle ratio (ΔLMR) ([1]; Naïve mice): 0.00
- Washout T1/2 in lungs ([1]; Naïve mice (normal lung)): 15.1 ± 1.9 min
- Washout T1/2 in lungs [1, 4]: 41.5 ± 6.3 min

Compound: CN(C)C(CCC(=O)NCCCN1CCN(CC(=O)[O-])Cc2cccc(n2)CN(CC(=O)[O-])CC1)C(=O)O.[Mn+2] (stereo not drawn) [Mn-18]
- Change in lung to muscle ratio (ΔLMR) ([1]; Bleomycin injured mice): 0.04
- Change in lung to muscle ratio (ΔLMR) ([1]; Naïve mice): 0.01
- Washout T1/2 in lungs ([1]; Naïve mice (normal lung)): 15.7 ± 1.8 min
- Washout T1/2 in lungs [1, 4]: 18.9 ± 2.0 min

From patent US20240285808A1, “MOLECULAR PROBES FOR IN VIVO DETECTION OF ALDEHYDES” (The General Hospital Corporation, priority 2021, published 2024)
